The values below come from PMC7031741 (Journal of Ginseng Research, 2018).

Structures are written as SMILES.

For the test, the target named is ABCB1 (P-glycoprotein, P-gp) (Homo sapiens, UniProt P08183). The test can be described thus: Pgp-Glo ATPase assay: inhibition of verapamil-stimulated ABCB1 ATPase. The test is classed as biochemical.
ABCB1 (P-glycoprotein, P-gp), sequence (P08183 whole entry): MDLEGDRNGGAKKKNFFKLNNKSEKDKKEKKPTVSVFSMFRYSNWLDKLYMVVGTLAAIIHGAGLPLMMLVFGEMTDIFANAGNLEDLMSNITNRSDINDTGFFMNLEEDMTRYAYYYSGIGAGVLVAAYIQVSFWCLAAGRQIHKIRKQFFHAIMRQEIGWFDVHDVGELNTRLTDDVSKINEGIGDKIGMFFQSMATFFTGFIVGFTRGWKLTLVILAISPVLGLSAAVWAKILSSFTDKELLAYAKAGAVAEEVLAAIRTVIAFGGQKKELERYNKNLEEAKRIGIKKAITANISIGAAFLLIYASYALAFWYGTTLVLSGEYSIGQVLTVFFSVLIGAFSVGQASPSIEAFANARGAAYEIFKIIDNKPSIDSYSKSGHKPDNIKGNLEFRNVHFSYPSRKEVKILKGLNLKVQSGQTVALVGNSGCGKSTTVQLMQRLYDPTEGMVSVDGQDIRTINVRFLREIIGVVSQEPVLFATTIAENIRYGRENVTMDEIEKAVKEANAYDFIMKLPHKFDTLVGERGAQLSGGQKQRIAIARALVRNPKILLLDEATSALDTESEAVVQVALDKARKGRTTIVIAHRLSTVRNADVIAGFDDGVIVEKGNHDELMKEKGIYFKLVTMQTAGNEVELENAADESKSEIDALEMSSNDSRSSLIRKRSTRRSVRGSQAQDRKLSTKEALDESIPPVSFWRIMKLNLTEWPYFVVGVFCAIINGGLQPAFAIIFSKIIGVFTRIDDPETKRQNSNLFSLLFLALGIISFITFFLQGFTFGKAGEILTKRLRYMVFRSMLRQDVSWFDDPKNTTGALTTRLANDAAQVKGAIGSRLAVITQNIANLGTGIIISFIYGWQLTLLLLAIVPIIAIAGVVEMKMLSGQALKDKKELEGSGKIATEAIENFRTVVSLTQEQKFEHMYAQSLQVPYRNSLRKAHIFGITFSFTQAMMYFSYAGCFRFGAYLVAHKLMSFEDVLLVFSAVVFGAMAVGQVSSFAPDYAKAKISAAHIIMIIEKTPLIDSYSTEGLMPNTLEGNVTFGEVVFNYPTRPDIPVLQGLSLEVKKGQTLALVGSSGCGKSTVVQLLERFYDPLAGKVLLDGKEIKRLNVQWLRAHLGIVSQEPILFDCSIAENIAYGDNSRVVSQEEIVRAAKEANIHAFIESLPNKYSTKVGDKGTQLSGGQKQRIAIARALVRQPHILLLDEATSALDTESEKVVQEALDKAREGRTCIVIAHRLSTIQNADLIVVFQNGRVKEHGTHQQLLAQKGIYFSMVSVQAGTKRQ

Compound `CC(C)=CC/C=C(\C)[C@H]1CC[C@]2(C)[C@@H]1[C@H](O)C[C@@H]1[C@@]3(C)CC[C@H](O[C@@H]4O[C@H](CO)[C@@H](O)[C@H](O)[C@H]4O[C@@H]4O[C@H](CO)[C@@H](O)[C@H](O)[C@H]4O)C(C)(C)[C@@H]3CC[C@]12C` [Rg5, Ginsenoside Rg5] registered an IC50 of 9.16 µM.

As usually defined, the IC50 is the point on the concentration scale where inhibition reaches its midpoint.
